Test results: patent US8853258B2, “C-linked hydroxamic acid derivatives useful as antibacterial agents” (Pfizer Inc., priority 2009, dated 2014)
≈ marks a conversion by molar mass, not a printed value. Like-named read-outs stand apart in the source and are kept apart here.

Key:
[1] = biological target: Pseudomonas aeruginosa LpxC enzyme (Pseudomonas aeruginosa (strain ATCC 15692 / DSM 22644 / CIP 104116 / JCM 14847 / LMG 12228 / 1C / PRS 101 / PAO1), UniProt P47205); assay: IC50 Assay, LpxC Enzyme from P. aeruginosa (PA LpxC Enzyme IC50); type: biochemical
Protocol: In order to assess the compounds biological activity, selected in-vitro assays were conducted on selected compounds. One of the assays measured the compounds ability to disrupt the synthesis of lipopolysaccharide, LPS, which is a component of the outer membrane of Gram-negative bacteria. Disruption of this synthesis is lethal to the bacteria. The assay determined the compound's ability to inhibit LpxC, which is the first enzyme in the biosynthetic pathway for LPS (measured as IC50). Additionally, MICs (minimal inhibitory concentrations) were determined for several bacteria. The specific protocols are described below:
A) IC50 Assay, LpxC Enzyme from P. aeruginosa (Labled as PA LpxC Enzyme IC50
At the end of 1 hour, 5 ul of 1N HCl was added to stop the enzyme reaction; the plates were centrifuged, and then processed with the BioTrove Rapidfire HTMS Mass Spectrometry System. A no-enzyme control was used in calculating the IC50 values from the percent conversion values.

[2] = tested on: Acinetobacter baumanii/haemolyticus: Multidrug-resistant clinical isolate (AB-3167); assay: MIC determination (CLSI), AB-3167; type: cell-based; details: Acinetobacter baumannii
Procedure, shortened: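 Multidrug-resistant clinical isolate AB-3167 (A. baumannii/haemolyticus) tested for minimum inhibitory concentration following CLSI dilution susceptibility standards M7-A7 and M100-S18.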

[3] = tested on: Escherichia coli EC-1: VOGEL, mouse virulent; assay: MIC determination (CLSI), EC-1; type: cell-based; details: Escherichia coli
Procedure, shortened: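 E. coli Vogel, a mouse-virulent strain (EC-1), was tested. MICs were set by dilution susceptibility testing per CLSI standards M7-A7/M100-S18.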

[4] = tested on: Klebsiella pneumoniae: Ciprofloxacin-resistant isolate, ESBL, clinical isolate (KP-3700); assay: MIC determination (CLSI), KP-3700; type: cell-based
Procedure, shortened: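 Strain KP-3700, a clinical isolate producing extended-spectrum β-lactamases and resistant to ciprofloxacin, was tested. Minimum inhibitory concentrations determined via CLSI dilution methodology (M7-A7; M100-S18).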

[5] = tested on: Pseudomonas aeruginosa UI-18: Wild-type (PA-7); assay: MIC determination (CLSI), PA-7; type: cell-based; details: Pseudomonas aeruginosa
Procedure, shortened: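 Wild-type P. aeruginosa UI-18 tested for minimum inhibitory concentration. Broth/agar dilution following CLSI standards (M7-A7, M100-S18).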

[6] = Table 1, read-out: PA LpxC enzyeme IC50
[7] = Table 1, MIC, read-out: AB-3167 (MIC)
[8] = Table 1, MIC, read-out: PA-7 (MIC)

| Structure (SMILES) | IC50 [1, 6] [nM] | MIC [2, 7] [µg/mL] | MIC ([3]; read-out: EC-1: (MIC)) [µg/mL] | KP-3700 MIC [4] | MIC [5, 8] [µg/mL] | IC50 ([1]; PA LpxC enzyeme IC50, Table 1) [nM] | MIC ([2]; read-out: AB-3167 (MIC)) [µg/mL] | KP-3700 MIC ([4]; Table 1, MIC) | MIC ([5]; read-out: PA-7 (MIC)) [µg/mL] | MIC ([2]; Table 3, read-out: AB-3167 MIC) [µg/mL] | MIC ([3]; read-out: EC-1 MIC) [µg/mL] | MIC ([5]; Table 3, read-out: PA-7 MIC) [µg/mL] |
| --- | --- | --- | --- | --- | --- | --- | --- | --- | --- | --- | --- | --- |
| CC(CCc1ccc(-c2ccc([N+](=O)[O-])cc2)cc1)(C(=O)NO)S(C)(=O)=O (racemic) [Example 5, (+/−)-N-hydroxy-2-methyl-2-(methylsulfonyl)-4-(4′-nitrobiphenyl-4-yl)butanamide] | 0.12 | 32 (≈ 81.5 µM) | 0.5 (≈ 1.27 µM) | 1 µg/mL | 0.5 (≈ 1.27 µM) |  |  |  |  |  |  |  |
| CC(CCc1ccc(OCc2ccccn2)cc1)(C(=O)NO)S(C)(=O)=O (racemic) [Example 16, (+/−)-N-Hydroxy-2-methyl-2-(methylsulfonyl)-4-[4-(pyridin-2-ylmethoxy)phenyl]butanamide] |  | ≥ 64 | ≥ 64 | ≧64 mg/L | 16 (≈ 42.3 µM) | 5.01 |  |  |  |  |  |  |
| CC(CCc1ccc(-c2ccc(F)cc2)cc1O)(C(=O)NO)S(C)(=O)=O (racemic) [Example 19, (+/−)-4-(4′-Fluoro-3-hydroxybiphenyl-4-yl)-N-hydroxy-2-methyl-2-(methylsulfonyl)butanamide] |  | ≥ 64 | 8 (≈ 21 µM) | 32 µg/mL | 16 (≈ 41.9 µM) | 3.43 |  |  |  |  |  |  |
| Cc1cc(-c2ccccc2)ccc1CCC(C)(C(=O)NO)S(C)(=O)=O (stereo not drawn) [Example 1, N-Hydroxy-2-methyl-4-(3-methylbiphenyl-4-yl)-2(methylsulfonyl)butanamide] | 1.68 | 16 (≈ 44.3 µM) | 2 (≈ 5.53 µM) | 8 µg/mL | 4 (≈ 11.1 µM) |  |  |  |  |  |  |  |
| CC(CCc1ccc(-c2ccccc2)cc1F)(C(=O)NO)S(C)(=O)=O (stereo not drawn) [Example 2, 4-(3-Fluorobiphenyl-4-yl)-N-hydroxy-2-methyl-2-(methylsulfonyl)butanamide] | 0.26 | 16 (≈ 43.8 µM) | 1 (≈ 2.74 µM) | 4 µg/mL | 1 (≈ 2.74 µM) |  |  |  |  |  |  |  |
| C[C@@](CCc1ccc(-c2ccc(OP(=O)(O)O)cc2)cc1)(C(=O)NO)S(C)(=O)=O [Example 6, 4′-[(3R)-4-(Hydroxyamino)-3-methyl-3-(methylsulfonyl)-4-oxobutyl]biphenyl-4-yl dihydrogen phosphate] | 88.1 |  | ≥ 64 |  |  |  | ≥ 64 | ≧64 mg/L | ≥ 64 |  |  |  |
| Cc1ccc(-c2noc(COc3ccc(CCC(C)(C(=O)NO)S(C)(=O)=O)cc3)n2)cc1 (stereo not drawn) [Example 269, N-hydroxy-2-methyl-4-(4-{[3-(4-methylphenyl)-1,2,4-oxadiazol-5-yl]methoxy}phenyl)-2-(methylsulfonyl)butanamide] |  |  |  | ≧64 mg/L |  |  |  |  |  | ≥ 64 | 4 (≈ 8.7 µM) | ≥ 64 |
| Cc1ccc(COc2ccc(CCC(C)(C(=O)NO)S(C)(=O)=O)cc2)cn1 (stereo not drawn) [Example 270, N-hydroxy-2-methyl-4-{4-[(6-methylpyridin-3-yl)methoxy]phenyl}-2-(methylsulfonyl)butanamide] |  |  |  | ≧64 mg/L |  |  |  |  |  | ≥ 64 | ≥ 64 | 32 (≈ 81.5 µM) |
| CC(CCc1ccc(OCCc2ccccc2)cc1)(C(=O)NO)S(C)(=O)=O (stereo not drawn) [Example 271, N-hydroxy-2-methyl-2-(methylsulfonyl)-4-[4-(2-phenylethoxy)phenyl]butanamide] |  |  |  | ≧64 mg/L |  |  |  |  |  | 32 (≈ 81.7 µM) | 16 (≈ 40.9 µM) | ≥ 64 |
| CC(CCc1ccc(OCc2nc(C3CCCC3)no2)cc1)(C(=O)NO)S(C)(=O)=O (stereo not drawn) [Example 273, 4-{4-[(3-cyclopentyl-1,2,4-oxadiazol-5-yl)methoxy]phenyl}-N-hydroxy-2-methyl-2-(methylsulfonyl)butanamide] |  |  |  | 32 µg/mL |  |  |  |  |  | ≥ 64 | 16 (≈ 36.6 µM) | ≥ 64 |
| CC(CCc1ccc(OCc2cccc(OC(F)(F)F)c2)cc1)(C(=O)NO)S(C)(=O)=O (stereo not drawn) [Example 274, N-hydroxy-2-methyl-2-(methylsulfonyl)-4-(4-{[3-(trifluoromethoxy)benzyl]oxy}phenyl)butanamide] |  |  |  | 16 µg/mL |  |  |  |  |  | 16 (≈ 34.7 µM) | 4 (≈ 8.67 µM) | 16 (≈ 34.7 µM) |
| CC(CCc1ccc(OCc2cc(C#N)ccc2F)cc1)(C(=O)NO)S(C)(=O)=O (stereo not drawn) [Example 275, 4-{4-[(5-cyano-2-fluorobenzyl)oxy]phenyl}-N-hydroxy-2-methyl-2-(methylsulfonyl)butanamide] |  |  |  | ≧64 mg/L |  |  |  |  |  | ≥ 64 | ≥ 64 | 32 (≈ 76.1 µM) |
| CC(CCc1ccc(OCc2c(F)cccc2Cl)cc1)(C(=O)NO)S(C)(=O)=O (stereo not drawn) [Example 276, 4-{4-[(2-chloro-6-fluorobenzyl)oxy]phenyl}-N-hydroxy-2-methyl-2-(methylsulfonyl)butanamide] |  |  |  | 16 µg/mL |  |  |  |  |  | 32 (≈ 74.4 µM) | 4 (≈ 9.3 µM) | 4 (≈ 9.3 µM) |
| CC(CCc1ccc(OCc2nc3ccccc3s2)cc1)(C(=O)NO)S(C)(=O)=O (stereo not drawn) [Example 277, 4-[4-(1,3-benzothiazol-2-ylmethoxy)phenyl]-N-hydroxy-2-methyl-2-(methylsulfonyl)butanamide] |  |  |  | 16 µg/mL |  |  |  |  |  | ≥ 64 | 4 (≈ 9.21 µM) | 32 (≈ 73.6 µM) |
| CC(CCc1ccc(OCc2ccc3ccccc3n2)cc1)(C(=O)NO)S(C)(=O)=O (stereo not drawn) [Example 279, N-hydroxy-2-methyl-2-(methylsulfonyl)-4-[4-(quinolin-2-ylmethoxy)phenyl]butanamide] |  |  |  | ≧64 mg/L |  |  |  |  |  | ≥ 64 | 16 (≈ 37.3 µM) | ≥ 64 |
| CC(CCc1ccc(OCCc2ccncc2)cc1)(C(=O)NO)S(C)(=O)=O (stereo not drawn) [Example 311, N-hydroxy-2-methyl-2-(methylsulfonyl)-4-[4-(2-pyridin-4-ylethoxy)phenyl]butanamide] |  |  |  | ≧64 mg/L |  |  |  |  |  | ≥ 64 | ≥ 64 | 32 (≈ 81.5 µM) |
| CC(CCc1ccc(OCCC2CCCC2)cc1)(C(=O)NO)S(C)(=O)=O (stereo not drawn) [Example 312, 4-[4-(2-cyclopentylethoxy)phenyl]-N-hydroxy-2-methyl-2-(methylsulfonyl)butanamide] |  |  |  | ≧64 mg/L |  |  |  |  |  | 2 (≈ 5.21 µM) | 8 (≈ 20.9 µM) | 8 (≈ 20.9 µM) |
| CC(CCc1ccc(OCCCC2CCCC2)cc1)(C(=O)NO)S(C)(=O)=O (stereo not drawn) [Example 313, 4-[4-(3-cyclopentylpropoxy)phenyl]-N-hydroxy-2-methyl-2-(methylsulfonyl)butanamide] |  |  |  | 16 µg/mL |  |  |  |  |  | 2 (≈ 5.03 µM) | 4 (≈ 10.1 µM) | 16 (≈ 40.2 µM) |
| CC(CCc1ccc(OCCC2CCCCC2)cc1)(C(=O)NO)S(C)(=O)=O (stereo not drawn) [Example 314, 4-[4-(2-cyclohexylethoxy)phenyl]-N-hydroxy-2-methyl-2-(methylsulfonyl)butanamide] |  |  |  | ≧64 mg/L |  |  |  |  |  | 2 (≈ 5.03 µM) | 16 (≈ 40.2 µM) | 16 (≈ 40.2 µM) |
| CC(CCc1ccc(OCCCC2CCCCC2)cc1)(C(=O)NO)S(C)(=O)=O (stereo not drawn) [Example 315, 4-[4-(3-cyclohexylpropoxy)phenyl]-N-hydroxy-2-methyl-2-(methylsulfonyl)butanamide] |  |  |  | 16 µg/mL |  |  |  |  |  | 2 (≈ 4.86 µM) | 4 (≈ 9.72 µM) | 32 (≈ 77.8 µM) |
| CC(CCc1ccc(OCc2ccncc2)cc1)(C(=O)NO)S(C)(=O)=O (stereo not drawn) [Example 316, N-hydroxy-2-methyl-2-(methylsulfonyl)-4-[4-(pyridin-4-ylmethoxy)phenyl]butanamide] |  |  |  | ≧64 mg/L |  |  |  |  |  | 16 (≈ 42.3 µM) | 32 (≈ 84.6 µM) | 8 (≈ 21.1 µM) |
